pKd: −log10 of the molar value.
How the values were obtained:
purine receptors = target: T1, purine receptors (Cavia porcellus, UniProt P47745); test: Purine receptor antagonism in guinea pig ileum twitch test (agonist 2-chloroadenosine, Schild regression); settings: for slope (Schild regression): value in brackets beside pA2, guinea pig ileum; for Kb: vs 2-chloroadenosine, Schild regression, may be considered the pKb, read-out: pA2 Guinea pig ileum (converted)
T1 construct: Ilea were removed from sacrificed guinea pigs and placed in organ baths; from tissue; host or cells: guinea pig ileum
T1 sequence (P47745 1-326): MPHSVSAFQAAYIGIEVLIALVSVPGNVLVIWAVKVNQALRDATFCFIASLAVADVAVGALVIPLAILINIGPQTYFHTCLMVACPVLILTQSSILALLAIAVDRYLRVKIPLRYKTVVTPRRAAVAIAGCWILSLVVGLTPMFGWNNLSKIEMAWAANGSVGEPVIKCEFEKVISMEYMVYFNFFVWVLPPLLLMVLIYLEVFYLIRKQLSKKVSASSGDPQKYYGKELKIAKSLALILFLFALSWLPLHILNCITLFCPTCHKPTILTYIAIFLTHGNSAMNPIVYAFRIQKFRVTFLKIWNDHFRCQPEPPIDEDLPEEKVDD
Protocol: Accordingly, a representative number of compounds of the present invention were tested for their ability to antagonise the purine receptors using the guinea pig ileum test system.
Ilea were removed from sacrificed guinea pigs and placed in organ baths containing oxygenated Krebs-Henseleit buffer. After equilibration, the ilea were stimulated to contract (twitch contraction) using an electrical field-stimulus of 0.1 Hz, 0.05 ms duration and maximal voltage. Under these conditions, the twitch contraction results from the release of acetylcholine.
Concentration response curves to the purine agonist, 2-chloroadenosine, were determined first in the absence and then in the presence of multiple concentrations of the compounds of the invention. One concentration of each compound was used per tissue. Quantification of purine receptor antagonism was accomplished using the Schild regression technique, i.e. plots of log (dose-ratio-1) vs log compound concentration, and the pA2 determined by regression of the data points to the x-intercept, where log (dose-ratio-1) is zero.

[1] = Standard LD50 test, intraperitoneal, mice; settings: mouse, in vivo, ip
Protocol: The toxicity of a representative number of compounds of the present invention was determined by using the standard LD50 test.

[2] = target: T2, ADO-induced prolongation of the atrio-to-His bundle conduction time (Cavia porcellus, UniProt P47745); test: Inhibition of ADO-induced prolongation of the atrio-to-His bundle conduction time in isolated, perfused guinea-pig heart; settings: five animals; 5 μm ADO infusion; Eadie-Scatchard plot of %INH; read-out: mean Kd(50)
T2 construct: isolated, perfused guinea-pig heart preparations; from tissue; host or cells: isolated, perfused guinea-pig heart
T2 sequence (P47745 1-326): T1 sequence (P47745 1-326)
Protocol: The ability of (E)-4-(1,2,3,6-tetrahydro-1,3-dimethyl-2,6-dioxo-9H-purin-8-yl)cinnamic acid to inhibit ADO-induced prolongation of the atrio-to-His bundle conduction time and, thus, its potential for the treatment of cardiac disorders including heart block, was evaluated in isolated, perfused guinea-pig heart preparations.
Male and female guinea-pigs were sacrificed by a blow to the head, and their hearts were quickly removed. The heart was then hung on a retro-grade aortic infusion apparatus. […]
Pacing was initiated at a rate that ensured one to one capture and later was set to 2-3 Hz. […] Two antagonists were evaluated per guinea-pig. […]
A.V. conduction times were measured from the HBE and LAE. […] Differences were then calculated by subtracting the control interval in question. Percentage ADO prolongation inhibition (%INH) was calculated by subtracting the A-A difference from the ADO difference, dividing by ADO difference, and multiplying by 100, thus %INH=(ADO diff.-ant. diff.)/ADO diff.*100.
The Kd(50) was then evaluated by an Fadie-Scatchard plot, where (%INH)/(antagonist conc.) was plotted on the ordinate and %INH on the abscissa. […]

| SMILES | slope (Schild regression) (purine receptors) | Kb (purine receptors) [nM] | LD50 [1] [mg/kg] | pKd [2] |
| --- | --- | --- | --- | --- |
| CCCn1c(=O)n(C)c(=O)c2nc(-c3ccc(/C=C/C(=O)O)cc3)[nH]c21 [Example 11, (E)-4-(1,2,3,6-tetrahydro-1-methyl-2,6-dioxo-3-propyl-9H-purin-8-yl)cinnamic acid] | 1.0 | 100 | – | – |
| CCCCn1c(=O)n(C)c(=O)c2nc(-c3ccc(/C=C/C(=O)O)cc3)[nH]c21 [Example 16, (E)-4-(3-butyl-1,2,3,6-tetrahydro-1-methyl-2,6-dioxo-9H-purin-8-yl)cinnamic acid] | – | – | > 100 | – |
| Cn1c(=O)c2nc(-c3ccc(/C=C/C(=O)O)cc3)[nH]c2n(Cc2ccccc2)c1=O [Example 18, (E)-4-(3-benzyl-1,2,3,6-tetrahydro-1-methyl-2,6-dioxo-9H-purin-8-yl)cinnamic acid] | 0.9 | 79.4 | > 100 | – |
| CC(C)Cn1c(=O)c2nc(-c3ccc(/C=C/C(=O)O)cc3)[nH]c2n(CC(C)C)c1=O [Example 19, (E)-4-(1,2,3,6-tetrahydro-1,3-diisobutyl-2,6-dioxo-9H-purin-8-yl)cinnamic acid] | 1.0 | 35.5 | – | – |
| Cn1c(=O)c2nc(-c3ccc(/C=C/C(=O)O)cc3)[nH]c2n(C)c1=O [Example 1, (E)-4-(1,2,3,6-tetrahydro-1,3,-dimethyl-2,6-dioxo-9H-purin-8-yl)cinnamic acid] | – | – | > 500 | 6.72 |
| CCCn1c(=O)c2nc(-c3ccc(/C=C/C(=O)O)cc3)[nH]c2n(CCC)c1=O [Example 6, (E)-4-(1,2,3,6-tetrahydro-2,6-dioxo-1,3-dipropyl-9H-purin-8-yl)cinnamic acid] | 0.9 | 20 | > 500 | – |
| CCCCn1c(=O)c2nc(-c3ccc(/C=C/C(=O)O)cc3)[nH]c2n(CCCC)c1=O [Example 14, (E)-4-(1,3-dibutyl-1,2,3,6-tetrahydro-2,6-dioxo-9H-purin-8-yl)cinnamic acid] | 1.0 | 31.6 | > 100 | – |
| O=C(O)/C=C/c1ccc(-c2nc3c(=O)n(Cc4ccccc4)c(=O)n(Cc4ccccc4)c3[nH]2)cc1 [Example 15, (E)-4-(1,3-dibenzyl-1,2,3,6-tetrahydro-2,6-dioxo-9H-purin-8-yl)cinnamic acid] | 0.9 | 79.4 | – | – |
| Cn1c(=O)c2[nH]cnc2n(C)c1=O [THEOPHYLLINE, 1,3-dimethylxanthine, reference compound] | 1.1 | – | – | – |
| CC(C)Cn1c(=O)n(C)c(=O)c2nc(-c3ccc(/C=C/C(=O)O)cc3)[nH]c21 [Example 12, (E)-4-(1,2,3,6-tetrahydro-3-isobutyl-1-methyl-2,6-dioxo-9H-purin-8-yl)cinnamic acid] | – | – | > 100 | – |
| CC(C)Cn1c(=O)[nH]c(=O)c2nc(-c3ccc(/C=C/C(=O)O)cc3)[nH]c21 [Example 10, (E)-4-(1,2,3,6-tetrahydro-3-isobutyl-2,6-dioxo-9H-purin-8-yl)cinnamic acid] | – | – | > 100 | – |

Source: patent publication US4879296A, “Xanthine derivatives” (Burroughs Wellcome co., priority 1985, dated 1989)
